In publication PMC3969223, “Characterization of WZ4003 and HTH-01-015 as selective inhibitors of the LKB1-tumour-suppressor-activated NUAK kinases” (Biochemical Journal, 2013):
Where “and” joins values, the source holds several entries; their conditions need not be identical. Equal entries are not always repeated.

Key:
Assay type in all cases: biochemical
[1] = target: T1, NUAK1[A195T] (Homo sapiens, UniProt O60285, A195T); test: GST–NUAK1[A195T] Sakamototide peptide kinase assay; settings: for IC50: 200 μM Sakamototide, 100 μM [γ-32P]ATP; for Reduction of potency (resistance) by the NUAK1 A195T mutation: NUAK1[A195T] versus wild-type NUAK1
T1 construct: made in house; host or cells: HEK-293 cells, transient transfection of pEBG2T construct
T1 sequence (O60285 1-661 A195T): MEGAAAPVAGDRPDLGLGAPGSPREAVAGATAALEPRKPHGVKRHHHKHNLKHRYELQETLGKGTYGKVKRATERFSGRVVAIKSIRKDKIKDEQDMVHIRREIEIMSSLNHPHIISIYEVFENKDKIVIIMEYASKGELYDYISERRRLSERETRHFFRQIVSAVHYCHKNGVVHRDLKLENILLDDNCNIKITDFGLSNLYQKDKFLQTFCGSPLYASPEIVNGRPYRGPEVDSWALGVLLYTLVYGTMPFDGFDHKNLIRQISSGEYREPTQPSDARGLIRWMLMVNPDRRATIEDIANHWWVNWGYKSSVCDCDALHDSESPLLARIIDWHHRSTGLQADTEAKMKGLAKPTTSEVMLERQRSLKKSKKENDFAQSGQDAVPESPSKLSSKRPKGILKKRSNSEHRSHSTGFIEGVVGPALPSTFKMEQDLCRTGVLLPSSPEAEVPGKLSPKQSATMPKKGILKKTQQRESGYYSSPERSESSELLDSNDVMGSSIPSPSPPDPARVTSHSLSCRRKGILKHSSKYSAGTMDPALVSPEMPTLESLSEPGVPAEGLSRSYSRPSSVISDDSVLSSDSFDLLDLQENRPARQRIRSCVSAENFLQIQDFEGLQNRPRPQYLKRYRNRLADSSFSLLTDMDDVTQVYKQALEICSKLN
Description: Active GST–NUAK1, GST–NUAK1[A195T] and GST–NUAK2 enzymes were purified using glutathione–Sepharose from HEK-293 cell lysates 36–48 h following the transient transfection of pEBG2T mammalian constructs expressing N-terminal GST-tagged NUAK1, NUAK1[A195T] or NUAK2. For peptide kinase assays, 96-well plates were used, and each reaction was performed in triplicate. Each reaction was set up in a total volume of 50 μl containing 100 ng of NUAK1 (wild-type or A195T mutant) or NUAK2 in 50 mM Tris/HCl (pH 7.5), 0.1 mM EGTA, 10 mM magnesium acetate, 200 μM Sakamototide, 0.1 mM [γ-^32P]ATP (450–500 c.p.m./pmol) and the indicated concentrations of inhibitors dissolved in DMSO. After incubation for 30 min at 30°C, reactions were terminated by adding 25 mM (final) EDTA to chelate the magnesium. Then, 40 μl of the reaction mix was spotted on to P81 paper and immersed in 50 mM orthophosphoric acid. Samples were washed three times in 50 mM orthophosphoric acid followed by a single acetone rinse and air drying. The incorporation of [γ-^32P]ATP into Sakamototide was quantified by Cerenkov counting. The values were expressed as a percentage of the DMSO control. IC50 curves were developed and IC50 values were calculated using GraphPad Prism software.

[2] = target: ABL (Homo sapiens, UniProt P00519); test: Kinase profiling; settings: for ABL activity, percentage of DMSO control: 0.1 or 1 μM inhibitor, mean of triplicate; for Inhibition of ABL in profiling (in words): 1 μM
ABL, sequence (P00519 whole entry): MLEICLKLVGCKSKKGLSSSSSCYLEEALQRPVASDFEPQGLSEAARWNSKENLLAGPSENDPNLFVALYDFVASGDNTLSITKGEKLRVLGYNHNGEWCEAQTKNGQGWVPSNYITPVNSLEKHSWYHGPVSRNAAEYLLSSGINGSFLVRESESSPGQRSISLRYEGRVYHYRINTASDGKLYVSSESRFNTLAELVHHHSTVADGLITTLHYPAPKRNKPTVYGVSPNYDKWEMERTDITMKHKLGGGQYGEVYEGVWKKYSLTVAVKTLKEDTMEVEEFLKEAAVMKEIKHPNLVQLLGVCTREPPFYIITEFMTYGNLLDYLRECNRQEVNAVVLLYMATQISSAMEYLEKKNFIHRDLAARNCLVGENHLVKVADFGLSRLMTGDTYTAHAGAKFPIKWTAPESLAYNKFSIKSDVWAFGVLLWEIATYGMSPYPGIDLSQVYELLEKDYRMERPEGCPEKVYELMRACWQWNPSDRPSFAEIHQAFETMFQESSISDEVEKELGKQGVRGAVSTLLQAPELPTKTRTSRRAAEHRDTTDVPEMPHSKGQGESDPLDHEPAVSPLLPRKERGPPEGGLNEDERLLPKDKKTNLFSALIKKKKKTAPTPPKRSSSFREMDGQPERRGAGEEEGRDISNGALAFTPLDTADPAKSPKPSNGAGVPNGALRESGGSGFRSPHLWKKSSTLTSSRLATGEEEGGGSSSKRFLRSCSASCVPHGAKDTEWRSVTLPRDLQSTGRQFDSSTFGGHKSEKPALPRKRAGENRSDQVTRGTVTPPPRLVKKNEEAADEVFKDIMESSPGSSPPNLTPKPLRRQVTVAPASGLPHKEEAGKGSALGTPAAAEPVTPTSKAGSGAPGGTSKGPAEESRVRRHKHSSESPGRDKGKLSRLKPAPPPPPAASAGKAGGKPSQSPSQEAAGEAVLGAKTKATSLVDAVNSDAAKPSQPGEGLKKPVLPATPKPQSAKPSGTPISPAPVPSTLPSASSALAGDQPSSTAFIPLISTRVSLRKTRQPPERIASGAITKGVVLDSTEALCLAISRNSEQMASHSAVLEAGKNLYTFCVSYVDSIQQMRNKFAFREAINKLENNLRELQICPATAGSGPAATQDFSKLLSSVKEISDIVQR
Description: (§1) Kinase inhibitor specificity profiling assays were carried out at The International Centre for Protein Kinase Profiling (http://www.kinase-screen.mrc.ac.uk/) against a panel of 140 protein kinases as described previously. Results are presented as a percentage of kinase activity in DMSO control reactions. Protein kinases were assayed in vitro with 0.1 or 1 μM of the inhibitors and the results are presented as an average of triplicate reactions±S.D. or in the form of comparative histograms.

[3] = target: T2, Aurora A (Homo sapiens, UniProt O14965); test: Kinase profiling; settings: for Inhibition of Aurora A in profiling (in words; Aurora isoforms): 1 μM
T2 sequence (O14965 1-403): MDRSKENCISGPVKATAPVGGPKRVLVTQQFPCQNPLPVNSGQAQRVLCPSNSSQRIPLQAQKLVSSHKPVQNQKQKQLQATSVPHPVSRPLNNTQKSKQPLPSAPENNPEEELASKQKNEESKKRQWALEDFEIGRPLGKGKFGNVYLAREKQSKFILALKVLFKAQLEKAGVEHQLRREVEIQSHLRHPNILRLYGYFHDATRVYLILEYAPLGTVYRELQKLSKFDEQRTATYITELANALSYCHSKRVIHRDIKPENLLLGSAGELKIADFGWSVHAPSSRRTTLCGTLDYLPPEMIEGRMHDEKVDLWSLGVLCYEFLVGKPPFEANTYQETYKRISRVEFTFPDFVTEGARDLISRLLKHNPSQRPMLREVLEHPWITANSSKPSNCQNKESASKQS
Description: as §1

[4] = target: Aurora B (Homo sapiens, UniProt Q96GD4); test: Kinase profiling; settings: for Aurora B activity, percentage of DMSO control: 0.1 or 1 μM inhibitor, mean of triplicate; for Inhibition of Aurora B in profiling (in words; Aurora isoforms): 1 μM
Aurora B, sequence (Q96GD4 whole entry, canonical isoform): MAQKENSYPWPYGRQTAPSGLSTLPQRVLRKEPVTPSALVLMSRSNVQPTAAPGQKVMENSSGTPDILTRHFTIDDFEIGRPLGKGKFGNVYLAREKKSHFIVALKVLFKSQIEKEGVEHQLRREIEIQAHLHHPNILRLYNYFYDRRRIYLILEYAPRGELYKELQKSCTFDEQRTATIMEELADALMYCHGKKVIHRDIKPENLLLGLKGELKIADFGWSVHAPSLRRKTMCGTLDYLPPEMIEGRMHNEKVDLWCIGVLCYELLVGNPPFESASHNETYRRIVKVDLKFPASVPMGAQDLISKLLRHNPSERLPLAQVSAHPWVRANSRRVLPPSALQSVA
Description: as §1

[5] = target: JAK2 (Homo sapiens, UniProt O60674); test: Kinase profiling; settings: for JAK2 activity, percentage of DMSO control: 0.1 or 1 μM inhibitor, mean of triplicate; for Inhibition of JAK2 in profiling (in words): 1 μM
JAK2, sequence (O60674 whole entry): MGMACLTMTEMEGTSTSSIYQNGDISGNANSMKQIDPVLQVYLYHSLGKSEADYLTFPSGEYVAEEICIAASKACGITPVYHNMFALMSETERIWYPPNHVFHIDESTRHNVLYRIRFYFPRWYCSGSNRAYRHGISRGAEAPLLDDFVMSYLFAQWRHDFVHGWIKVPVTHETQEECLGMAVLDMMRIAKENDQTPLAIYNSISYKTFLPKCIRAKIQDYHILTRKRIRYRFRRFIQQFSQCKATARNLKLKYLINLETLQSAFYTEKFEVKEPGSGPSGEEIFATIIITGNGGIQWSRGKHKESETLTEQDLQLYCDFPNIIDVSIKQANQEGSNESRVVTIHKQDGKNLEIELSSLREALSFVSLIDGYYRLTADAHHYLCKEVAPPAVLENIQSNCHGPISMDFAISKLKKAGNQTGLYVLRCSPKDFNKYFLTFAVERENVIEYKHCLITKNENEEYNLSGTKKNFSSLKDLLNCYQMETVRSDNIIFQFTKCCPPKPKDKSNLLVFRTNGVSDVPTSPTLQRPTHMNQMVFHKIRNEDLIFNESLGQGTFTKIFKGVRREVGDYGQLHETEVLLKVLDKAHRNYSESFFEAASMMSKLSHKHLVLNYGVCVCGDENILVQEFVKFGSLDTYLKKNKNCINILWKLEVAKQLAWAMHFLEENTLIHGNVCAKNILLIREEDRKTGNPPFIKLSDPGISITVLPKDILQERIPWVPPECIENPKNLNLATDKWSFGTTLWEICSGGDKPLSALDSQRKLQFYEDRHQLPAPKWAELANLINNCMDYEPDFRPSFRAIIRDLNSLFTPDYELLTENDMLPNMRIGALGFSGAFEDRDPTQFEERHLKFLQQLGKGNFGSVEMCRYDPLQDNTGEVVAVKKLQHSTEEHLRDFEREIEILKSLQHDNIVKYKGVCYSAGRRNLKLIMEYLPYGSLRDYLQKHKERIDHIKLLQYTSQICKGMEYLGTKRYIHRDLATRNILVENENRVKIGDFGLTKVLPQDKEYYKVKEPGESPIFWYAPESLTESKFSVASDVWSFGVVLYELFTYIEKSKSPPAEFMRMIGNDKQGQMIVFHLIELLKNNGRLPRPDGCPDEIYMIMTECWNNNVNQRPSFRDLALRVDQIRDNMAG
Description: as §1

[6] = target: T3, BRSK1 (Homo sapiens, UniProt Q8TDC3); test: Kinase profiling; settings: for BRSK1 activity, percentage of DMSO control: 0.1 or 1 μM inhibitor, mean of triplicate
T3 sequence (Q8TDC3 1-778): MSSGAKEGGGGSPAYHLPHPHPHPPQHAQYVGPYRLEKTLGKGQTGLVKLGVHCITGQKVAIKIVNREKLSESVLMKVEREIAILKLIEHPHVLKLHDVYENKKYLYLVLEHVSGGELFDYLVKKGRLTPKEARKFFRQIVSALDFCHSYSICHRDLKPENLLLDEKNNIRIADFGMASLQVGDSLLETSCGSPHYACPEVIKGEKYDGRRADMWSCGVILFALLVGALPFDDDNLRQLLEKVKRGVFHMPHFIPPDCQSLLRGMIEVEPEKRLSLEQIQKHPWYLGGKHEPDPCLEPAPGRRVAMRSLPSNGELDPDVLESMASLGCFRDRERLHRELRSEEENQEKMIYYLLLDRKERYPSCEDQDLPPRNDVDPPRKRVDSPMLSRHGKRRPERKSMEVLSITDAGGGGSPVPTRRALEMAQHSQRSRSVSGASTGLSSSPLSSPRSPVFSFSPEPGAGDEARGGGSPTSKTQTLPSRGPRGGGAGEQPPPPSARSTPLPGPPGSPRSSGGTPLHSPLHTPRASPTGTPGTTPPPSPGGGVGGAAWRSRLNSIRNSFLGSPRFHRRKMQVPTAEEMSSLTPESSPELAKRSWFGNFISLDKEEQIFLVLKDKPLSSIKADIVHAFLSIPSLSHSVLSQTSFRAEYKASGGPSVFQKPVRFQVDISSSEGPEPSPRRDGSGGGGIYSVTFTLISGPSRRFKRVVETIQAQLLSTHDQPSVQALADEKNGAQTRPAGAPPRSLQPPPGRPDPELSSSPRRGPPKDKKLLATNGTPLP
Description: as §1

[7] = system: panel of 140 protein kinases; test: Protein kinase profiling, whole panel; settings: 1 μM, panel of 140 kinases
Description: as §1

| SMILES | IC50 [1] [nM] | Reduction of potency (resistance) by the NUAK1 A195T mutation [1] | ABL activity, percentage of DMSO control [2] [percentage] | Aurora A activity, percentage of DMSO control ([3]; 0.1 or 1 μM inhibitor, mean of triplicate) [percentage] | Aurora B activity, percentage of DMSO control [4] [percentage] | JAK2 activity, percentage of DMSO control [5] [percentage] | BRSK1 activity, percentage of DMSO control [6] [percentage] | Selectivity over the other kinases of the panel (in words) [7] | Inhibition of ABL in profiling (in words) [2] | Inhibition of Aurora A in profiling (in words; Aurora isoforms) [3] | Inhibition of Aurora B in profiling (in words; Aurora isoforms) [4] | Inhibition of JAK2 in profiling (in words) [5] | Inhibition of BRSK1 in profiling (in words) ([6]; 1 μM) |
| --- | --- | --- | --- | --- | --- | --- | --- | --- | --- | --- | --- | --- | --- |
| Cc1nc(Nc2cnn(C3CCNCC3)c2)nc2c1N(C)C(=O)c1cc3ccccc3cc1N2C [HTH-01-015] | 5890 | ~ 50 fold and ~ 60 fold | 110 | 117 | 97 | 101 | 130 | did not markedly suppress |  |  |  |  |  |
| CCC(=O)Nc1cccc(Oc2nc(Nc3ccc(N4CCN(C)CC4)cc3OC)ncc2Cl)c1 [WZ4003] | 900 | ~ 50 fold and 45 fold | 104 |  | 72 | 65 | 91 | did not significantly inhibit |  |  |  |  |  |
| CN1C(=O)c2ccccc2N(C)c2nc(Nc3cnn(C4CCNCC4)c3)ncc21 [XMD-17-51] | 600 | > 50 fold |  |  |  |  |  | less selective | inhibited | inhibited | inhibited | inhibited | inhibited |
| CN1C(=O)c2cc3ccccc3cc2N(C)c2nc(Nc3cnn(C4CCNCC4)c3)ncc21 [XMD-18-42] | 1500 | > 50 fold |  |  |  |  |  | less selective | inhibited | inhibited | inhibited | inhibited |  |
